Measured values published in PubChem BioAssay (NCI).
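Assay format: 96-well plates, 48-hour exposure. GI50 is the concentration that inhibits growth by half. The concentration for full growth arrest is given as TGI.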

Legend:
Assay in all cases: NCI tumour cell line growth inhibition, 48 h
BT-549 breast = system: BT-549 breast
OVCAR-5 ovarian = system: OVCAR-5 ovarian
NCI-H460 lung = system: NCI-H460 lung
SK-OV-3 ovarian = system: SK-OV-3 ovarian
CAKI-1 renal = system: CAKI-1 renal
OVCAR-8 ovarian = system: OVCAR-8 ovarian
PC-3 prostate = system: PC-3 prostate
SK-MEL-5 melanoma = system: SK-MEL-5 melanoma
NCI/ADR-RES ovarian = system: NCI/ADR-RES ovarian
HCC-2998 colon = system: HCC-2998 colon
SNB-19 CNS = system: SNB-19 CNS
SF-268 CNS = system: SF-268 CNS
TK-10 renal = system: TK-10 renal
NCI-H23 lung = system: NCI-H23 lung
LOX IMVI melanoma = system: LOX IMVI melanoma
SR leukemia = system: SR leukemia
MOLT-4 leukemia = system: MOLT-4 leukemia
SW-620 colon = system: SW-620 colon
K-562 leukemia = system: K-562 leukemia
EKVX NSCLC = system: EKVX NSCLC
MDA-MB-231 breast = system: MDA-MB-231 breast
SF-295 CNS = system: SF-295 CNS
HT29 colon = system: HT29 colon
DU-145 prostate = system: DU-145 prostate
UO-31 renal = system: UO-31 renal
MALME-3M melanoma = system: MALME-3M melanoma
SN12C renal = system: SN12C renal
NCI-H522 lung = system: NCI-H522 lung
COLO 205 colon = system: COLO 205 colon
ACHN renal = system: ACHN renal
CCRF-CEM leukemia = system: CCRF-CEM leukemia
A549 NSCLC = system: A549 NSCLC
KM12 colon = system: KM12 colon
UACC-257 melanoma = system: UACC-257 melanoma
U251 CNS = system: U251 CNS
HOP-92 NSCLC = system: HOP-92 NSCLC
HCT-15 colon = system: HCT-15 colon
SK-MEL-28 melanoma = system: SK-MEL-28 melanoma
MCF7 breast = system: MCF7 breast
OVCAR-3 ovarian = system: OVCAR-3 ovarian
SNB-75 CNS = system: SNB-75 CNS
HL-60(TB) leukemia = system: HL-60(TB) leukemia
IGROV1 ovarian = system: IGROV1 ovarian
SK-MEL-2 melanoma = system: SK-MEL-2 melanoma
HS 578T breast = system: HS 578T breast
NCI-H226 lung = system: NCI-H226 lung
MDA-MB-435 = system: MDA-MB-435
786-0 renal = system: 786-0 renal
M14 melanoma = system: M14 melanoma
A498 renal = system: A498 renal
SF-539 CNS = system: SF-539 CNS
HCT-116 colon = system: HCT-116 colon
HOP-62 NSCLC = system: HOP-62 NSCLC
OVCAR-4 ovarian = system: OVCAR-4 ovarian
RPMI-8226 leukemia = system: RPMI-8226 leukemia
T-47D breast = system: T-47D breast
RXF 393 renal = system: RXF 393 renal

Work on `CNC(=O)c1ccc(N2CCN(Cc3ccc4nc(C)c(=O)[nH]c4c3F)CC2)c(F)n1` yielded a GI50 (BT-549 breast) of 89.6 µM, a TGI (BT-549 breast) greater than 100 µM and a GI50 (OVCAR-5 ovarian) greater than 100 µM. It also gave a TGI (OVCAR-5 ovarian) greater than 100 µM, a GI50 (NCI-H460 lung) of 73.8 µM and a TGI (NCI-H460 lung) greater than 100 µM. The GI50 (SK-OV-3 ovarian) was greater than 100 µM, the TGI (SK-OV-3 ovarian) was greater than 100 µM and the GI50 (CAKI-1 renal) was 49.4 µM. The TGI (CAKI-1 renal) was greater than 100 µM, the GI50 (OVCAR-8 ovarian) was 58.7 µM and the TGI (OVCAR-8 ovarian) was greater than 100 µM. The GI50 (PC-3 prostate) was greater than 100 µM, the TGI (PC-3 prostate) was greater than 100 µM and the GI50 (SK-MEL-5 melanoma) was 30.5 µM. For the same compound, the TGI (SK-MEL-5 melanoma) was greater than 100 µM, the GI50 (NCI/ADR-RES ovarian) was 78.8 µM and the TGI (NCI/ADR-RES ovarian) was greater than 100 µM. For the same compound, the GI50 (HCC-2998 colon) was greater than 100 µM, the TGI (HCC-2998 colon) was greater than 100 µM and the GI50 (SNB-19 CNS) was 34.2 µM. The TGI (SNB-19 CNS) was greater than 100 µM, the GI50 (SF-268 CNS) was 43.3 µM and the TGI (SF-268 CNS) was greater than 100 µM. The GI50 (TK-10 renal) was 72.3 µM, the TGI (TK-10 renal) was greater than 100 µM and the GI50 (NCI-H23 lung) was 70.6 µM. The TGI (NCI-H23 lung) was greater than 100 µM, the GI50 (LOX IMVI melanoma) was greater than 100 µM and the TGI (LOX IMVI melanoma) was greater than 100 µM. It also gave a GI50 (SR leukemia) of 63.1 µM, a TGI (SR leukemia) greater than 100 µM and a GI50 (MOLT-4 leukemia) greater than 100 µM. It also gave a TGI (MOLT-4 leukemia) greater than 100 µM, a GI50 (SW-620 colon) greater than 100 µM and a TGI (SW-620 colon) greater than 100 µM. The GI50 (K-562 leukemia) was greater than 100 µM, the TGI (K-562 leukemia) was greater than 100 µM and the GI50 (EKVX NSCLC) was 81.2 µM. For the same compound, the TGI (EKVX NSCLC) was greater than 100 µM, the GI50 (MDA-MB-231 breast) was 39.5 µM and the TGI (MDA-MB-231 breast) was greater than 100 µM. For the same compound, the GI50 (SF-295 CNS) was 48.5 µM, the TGI (SF-295 CNS) was greater than 100 µM and the GI50 (HT29 colon) was greater than 100 µM. The TGI (HT29 colon) was greater than 100 µM, the GI50 (DU-145 prostate) was greater than 100 µM and the TGI (DU-145 prostate) was greater than 100 µM. It also gave a GI50 (UO-31 renal) greater than 100 µM, a TGI (UO-31 renal) greater than 100 µM and a GI50 (MALME-3M melanoma) greater than 100 µM. The TGI (MALME-3M melanoma) was greater than 100 µM, the GI50 (SN12C renal) was 57.7 µM and the TGI (SN12C renal) was greater than 100 µM. The GI50 (NCI-H522 lung) was 21.2 µM, the TGI (NCI-H522 lung) was greater than 100 µM and the GI50 (COLO 205 colon) was greater than 100 µM. It also gave a TGI (COLO 205 colon) greater than 100 µM, a GI50 (ACHN renal) greater than 100 µM and a TGI (ACHN renal) greater than 100 µM. The GI50 (CCRF-CEM leukemia) was greater than 100 µM, the TGI (CCRF-CEM leukemia) was greater than 100 µM and the GI50 (A549 NSCLC) was greater than 100 µM. For the same compound, the TGI (A549 NSCLC) was greater than 100 µM, the GI50 (KM12 colon) was greater than 100 µM and the TGI (KM12 colon) was greater than 100 µM. For the same compound, the GI50 (UACC-257 melanoma) was greater than 100 µM, the TGI (UACC-257 melanoma) was greater than 100 µM and the GI50 (U251 CNS) was 36.5 µM. For the same compound, the TGI (U251 CNS) was greater than 100 µM, the GI50 (HOP-92 NSCLC) was 21.3 µM and the TGI (HOP-92 NSCLC) was greater than 100 µM. For the same compound, the GI50 (HCT-15 colon) was greater than 100 µM, the TGI (HCT-15 colon) was greater than 100 µM and the GI50 (SK-MEL-28 melanoma) was greater than 100 µM. It also gave a TGI (SK-MEL-28 melanoma) greater than 100 µM, a GI50 (MCF7 breast) of 65.9 µM and a TGI (MCF7 breast) greater than 100 µM. The GI50 (OVCAR-3 ovarian) was greater than 100 µM, the TGI (OVCAR-3 ovarian) was greater than 100 µM and the GI50 (SNB-75 CNS) was 16.4 µM. For the same compound, the TGI (SNB-75 CNS) was 63.8 µM, the GI50 (HL-60(TB) leukemia) was greater than 100 µM and the TGI (HL-60(TB) leukemia) was greater than 100 µM. The GI50 (IGROV1 ovarian) was greater than 100 µM, the TGI (IGROV1 ovarian) was greater than 100 µM and the GI50 (SK-MEL-2 melanoma) was 76.2 µM. For the same compound, the TGI (SK-MEL-2 melanoma) was greater than 100 µM, the GI50 (HS 578T breast) was 25.3 µM and the TGI (HS 578T breast) was greater than 100 µM. It also gave a GI50 (NCI-H226 lung) of 44.9 µM, a TGI (NCI-H226 lung) greater than 100 µM and a GI50 (MDA-MB-435) greater than 100 µM. It also gave a TGI (MDA-MB-435) greater than 100 µM, a GI50 (786-0 renal) of 47.4 µM and a TGI (786-0 renal) greater than 100 µM. It also gave a GI50 (M14 melanoma) greater than 100 µM, a TGI (M14 melanoma) greater than 100 µM and a GI50 (A498 renal) greater than 100 µM. The TGI (A498 renal) was greater than 100 µM, the GI50 (SF-539 CNS) was 55.4 µM and the TGI (SF-539 CNS) was greater than 100 µM. For the same compound, the GI50 (HCT-116 colon) was 91.4 µM, the TGI (HCT-116 colon) was greater than 100 µM and the GI50 (HOP-62 NSCLC) was 43.7 µM. The TGI (HOP-62 NSCLC) was greater than 100 µM, the GI50 (OVCAR-4 ovarian) was greater than 100 µM and the TGI (OVCAR-4 ovarian) was greater than 100 µM. For the same compound, the GI50 (RPMI-8226 leukemia) was greater than 100 µM, the TGI (RPMI-8226 leukemia) was greater than 100 µM and the GI50 (T-47D breast) was 53.5 µM. For the same compound, the TGI (T-47D breast) was greater than 100 µM, the GI50 (RXF 393 renal) was 13.1 µM and the TGI (RXF 393 renal) was 62.5 µM.
